# Experimental data: PMC7673538 (PLoS Biology, 2020)
# Where two headings read alike, the source gives them in different places.
# How the values were obtained:
# HRV-A2 = test: microbe, parasite or virus in culture; type: cell-based, human rhinovirus; settings: Human rhinovirus sp., HRVA2, HeLa R19, read-out: EC50 HRV-A2
# CV-A24 = test: microbe, parasite or virus in culture; type: cell-based, coxsackievirus A24; settings: Enterovirus C
# HRV-B14 = test: microbe, parasite or virus in culture; type: cell-based, human rhinovirus; settings: Human rhinovirus sp.
# EV-D68 = test: microbe, parasite or virus in culture; type: cell-based, enterovirus D68; settings: Enterovirus D
# EV-A71 = test: microbe, parasite or virus in culture; type: cell-based, enterovirus A71; settings: Enterovirus A
# PV-1 = test: microbe, parasite or virus in culture; type: cell-based, poliovirus 1; settings: Enterovirus C
# in vitro [1] = settings: human
# CV-B3 [2] = test: microbe, parasite or virus in culture; type: cell-based, coxsackievirus B3; settings: for EC50: Enterovirus B
# in vitro [3] = settings: human; remark: listed apart in the source
# CV-B3 [4] = test: microbe, parasite or virus in culture; type: cell-based, coxsackievirus B3; settings: Enterovirus B
# [5] = system: representative EVs and RVs; type: cell-based
# in vitro [6] = settings: monkey
# CV-B3 [7] = test: microbe, parasite or virus in culture; type: cell-based, coxsackievirus B3; settings: Enterovirus B, CVB3, BGM
# [8] = CVA24, HeLa R19, read-out: EC50 Exp1
# [9] = CVA24, HeLa R19, read-out: EC50 Exp2
# [10] = HRVB14, HeLa R19, read-out: EC50 HRV-B14
# [11] = EVD68, HeLa R19, read-out: EC50 EV-D68
# [12] = EVD68, HeLa R19, read-out: EC50 Exp1
# [13] = EVD68, HeLa R19, read-out: EC50 Exp2
# [14] = EVA71, HeLa R19, read-out: EC50 EV-A71
# [15] = EVA71, HeLa R19, read-out: EC50 Exp1
# [16] = EVA71, HeLa R19, read-out: EC50 Exp2
# [17] = CVB3, HeLa R19, read-out: CV-B3 EC50 Average
# [18] = CVB3, HeLa R19, read-out: CV-B3 Exp 1 EC50
# [19] = CVB3, HeLa R19, read-out: CV-B3 Exp2 EC50
# [20] = CVB3, HeLa R19, read-out: Exp 1 EC50 HelaR19
# [21] = CVB3, HeLa R19, read-out: Exp 2 EC50 HelaR19
# [22] = CVB3, HAP1, read-out: EC50 Hap1 Average
# [23] = CVB3, HAP1, read-out: Exp 1 EC50 Hap1
# [24] = CVB3, HAP1, read-out: Exp 2 EC50 Hap1
structure (smiles),measurement,setting,value
"Cc1ccc(CN(C(=O)c2ccco2)c2ccccc2)cc1 [Compound 19g, N-(4-Methylbenzyl)-N-phenylfuran-2-carboxamide]",EC50,HRV-A2,> 30000 nM
same,EC50,CV-A24; [8],9290 nM
same,EC50,CV-A24; [9],11000 nM
same,EC50,"HRV-B14; HRVB14, HeLa R19, read-out: EC50 Average",12600 nM
same,EC50,"HRV-B14; HRVB14, HeLa R19, read-out: EC50 Exp1",13600 nM
same,EC50,"HRV-B14; HRVB14, HeLa R19, read-out: EC50 Exp2",11500 nM
same,EC50,HRV-B14; [10],12500 ± 1050 nM
same,EC50,"EV-D68; EVD68, HeLa R19, read-out: EC50 Average",1480 nM
same,EC50,EV-D68; [11],1490 ± 80 nM
same,EC50,EV-D68; [12],1560 nM
same,EC50,EV-D68; [13],1410 nM
same,EC50,EV-A71; [14],600 ± 140 nM
same,EC50,EV-A71; [15],460 nM
same,EC50,EV-A71; [16],730 nM
same,cytotoxicity (in words),HeLa R19 cells,did not show any cytotoxicity
same,EC50,"PV-1; HeLa R19, read-out: EC50 Exp1",16500 nM
same,EC50,"PV-1; HeLa R19, read-out: EC50 Exp2",18500 nM
same,EC50,"PV-1; HeLa R19, read-out: EC50 PV-1",17500 ± 1000 nM
same,CC50,in vitro [1]; CC50,> 100000 nM
same,CC50,in vitro [1]; CC50 Hap1 Average,> 100000 nM
same,CC50,in vitro [1]; Exp 1 CC50 Hap1,> 100000 nM
same,CC50,in vitro [1]; Exp 2 CC50 Hap1,> 100000 nM
same,effect of the substitution on antiviral activity against CV-B3 (in words),CV-B3 [2],only marginally affected antiviral activity
same,EC50,CV-B3 [2]; [17],880 nM
same,EC50,CV-B3 [2]; [18],860 nM
same,EC50,CV-B3 [2]; [19],890 nM
same,EC50,CV-B3 [2]; [20],1020 nM
same,EC50,CV-B3 [2]; [21],1690 nM
same,CC50,in vitro [3]; CC50 Average,> 30000 nM
same,CC50,in vitro [3]; CC50 HelaR19 Average,> 100000 nM
same,CC50,in vitro [3]; Exp 1 CC50,> 30000 nM
same,CC50,in vitro [3]; Exp 1 CC50 HelaR19,> 100000 nM
same,CC50,in vitro [3]; Exp2 CC50,> 30000 nM
same,CC50,in vitro [3]; Exp 2 CC50 HelaR19,> 100000 nM
same,EC50,CV-B3 [4]; [22],2380 nM
same,EC50,CV-B3 [4]; [23],2080 nM
same,EC50,CV-B3 [4]; [24],2680 nM
same,spectrum of antiviral activity (in words),[5],anti-EV activity but not anti-RV activity
same,CC50,in vitro [6]; CC50,> 100000 nM
same,CC50,in vitro [6]; CC50 BGM Average,> 100000 nM
same,CC50,in vitro [6]; Exp 1 CC50 BGM,> 100000 nM
same,CC50,in vitro [6]; Exp 2 CC50 BGM,> 100000 nM
same,EC50,CV-B3 [7],1700 ± 260 nM
same,EC50,CV-B3 [7]; read-out: EC50 BGM Average,1690 nM
same,EC50,CV-B3 [7]; read-out: Exp 1 EC50 BGM,1950 nM
same,EC50,CV-B3 [7]; read-out: Exp 2 EC50 BGM,1440 nM
"O=C(c1ccco1)N(Cc1ccccc1)c1ccccc1 [Compound 19a, N-Benzyl-N-phenylfuran-2-carboxamide]",EC50,HRV-A2,> 30000 nM
same,EC50,"CV-A24; CVA24, HeLa R19, read-out: EC50 CV-A24",21480 ± 30 nM
same,EC50,CV-A24; [8],21500 nM
same,EC50,CV-A24; [9],21400 nM
same,EC50,HRV-B14; [10],> 30000 nM
same,EC50,EV-D68; [11],1340 ± 450 nM
same,EC50,EV-D68; [12],1790 nM
same,EC50,EV-D68; [13],890 nM
same,EC50,EV-A71; [14],3500 ± 310 nM
same,EC50,EV-A71; [15],3190 nM
same,EC50,EV-A71; [16],3800 nM
same,cytotoxicity (in words),HeLa R19 cells,did not show any cytotoxicity
same,EC50,"PV-1; HeLa R19, read-out: EC50 Exp1",31500 nM
same,EC50,"PV-1; HeLa R19, read-out: EC50 Exp2",33600 nM
same,EC50,"PV-1; HeLa R19, read-out: EC50 PV-1",32600 ± 1080 nM
same,CC50,in vitro [1]; CC50,> 100000 nM
same,CC50,in vitro [1]; CC50 Hap1 Average,> 100000 nM
same,CC50,in vitro [1]; Exp 1 CC50 Hap1,> 100000 nM
same,CC50,in vitro [1]; Exp 2 CC50 Hap1,> 100000 nM
same,increase or decrease of antiviral activity against CV-B3,CV-B3 [2],less than 3 fold
same,EC50,CV-B3 [2]; [17],910 nM
same,EC50,CV-B3 [2]; [18],880 nM
same,EC50,CV-B3 [2]; [19],940 nM
same,EC50,"CV-B3 [2]; CVB3, HeLa R19, read-out: EC50 HelaR19 Average",1620 nM
same,EC50,CV-B3 [2]; [20],1250 nM
same,EC50,CV-B3 [2]; [21],1980 nM
same,CC50,in vitro [3]; CC50 Average,> 30000 nM
same,CC50,in vitro [3]; CC50 HelaR19 Average,> 100000 nM
same,CC50,in vitro [3]; Exp 1 CC50,> 30000 nM
same,CC50,in vitro [3]; Exp 1 CC50 HelaR19,> 100000 nM
same,CC50,in vitro [3]; Exp2 CC50,> 30000 nM
same,CC50,in vitro [3]; Exp 2 CC50 HelaR19,> 100000 nM
same,EC50,CV-B3 [4]; [22],730 nM
same,EC50,CV-B3 [4]; [23],480 nM
same,EC50,CV-B3 [4]; [24],970 nM
same,spectrum of antiviral activity (in words),[5],anti-EV activity but not anti-RV activity
same,CC50,in vitro [6]; CC50,> 100000 nM
same,CC50,in vitro [6]; CC50 BGM Average,> 100000 nM
same,CC50,in vitro [6]; Exp 1 CC50 BGM,> 100000 nM
same,CC50,in vitro [6]; Exp 2 CC50 BGM,> 100000 nM
same,EC50,CV-B3 [7]; read-out: EC50 BGM Average,1840 nM
same,EC50,CV-B3 [7]; read-out: Exp 1 EC50 BGM,1900 nM
same,EC50,CV-B3 [7]; read-out: Exp 2 EC50 BGM,1770 nM
